From patent publication US4202876A, “Investigating body function” (The Radiochemical Centre Limited, priority 1977, dated 1980)

Tests used:
[1] = Intravenous administration to humans with the object of adrenal visualisation; type: in vivo, human
Source text: It was surmised that 19-methyl-^75 Se selenocholesterol was being converted to analogues of bile salts in which a methylseleno group was attached to the C19 carbon atom.

[2] = Biliary collection of 75Se radioactivity after intravenous injection, bile-cannulated rabbit; type: in vivo
Protocol: A male rabbit (NZW×LOP; 4.8 kg) was anaesthetized with sodium pentobarbitone ("Sagatal"), intravenously injected. A tracheotomy was performed and into a jugular vein was inserted a cannula with a 3-way tap. The animal was ventilated by intermittent positive pressure and anaesthesia maintained by intravenous administration of pentobarbitone as required. A midline ventral incision was made in the abdominal wall and the liver reflected to reveal the gall bladder, cystic duct and the common bile duct. After ligation of the cystic duct the common bile duct was cannulated for the collection of bile.
After a period of stabilization 1 ml of a solution of 19-methyl-[^75 Se]selenocholesterol (0.01 mg; 12 mCi) in polysorbate/normal saline was injected via the jugular cannula. Bile was collected as a series of 15-minute samples in preweighed tubes. After collection each sample was weighed and counted for ^75 Se radioactivity. The flow of bile, initially at 3.4 ml/15 minutes, declined to 1.5 ml/15 minutes after 61/2 hours. During this period 56.65 g of bile was collected containing approximately 100 μCi of ^75 Se radioactivity (about 1 percent of the injected dose).

[3] = Whole-body excretion studies in rats after oral administration (whole-body counts, bi-exponential fit); type: in vivo, rat; settings: for b (amplitude of second component) / c (constant; percentage predicted as never being excreted) / x (rate constant of first component) / y (rate constant of second component): Retention(t)=ae^-xt+be^-yt+c; for a (amplitude of first component, Retention(t)=ae^-xt+be^-yt+c): whole-body retention as % of initial counts, 6-8 days
Protocol: Whole-body excretion studies in rats over a period of 8 days after oral administration of compounds i to viii indicate that excretion is delayed with respect to a non-absorbable radioactive maker, ^131 I-polyvinylpyrollidone.
For each of the eight compounds under investigation, approximately 10-15 μCi was administered via an intragastric tube to rats. Whole-body counts were determined immediately after administration and at intervals during the following 6-8 days. A whole-body standard permitted corrections for radioactive decay and variations in counter efficiency.
Whole-body retention is expressed as a percentage of the counts determined immediately after administration.
Retention (t)=ae^-xt +be^-yt +c (1)

[4] = Clinical whole-body counting of 75Se retention after oral administration; type: in vivo, human; settings: for Retention of Selenium-75 Radioactivity: oral approx. 1 μCi
Protocol: Approximately 1 μCi of compound ii was given orally as a drink in water to four adult volunteers, two of them being normal active adult males, 35-50 years of age, and two who had received a total ileal resection more than 10 years previously. All were on a normal diet. Se-ii was administered between 10.00 am and 12 noon. Body radioactivity was then measured in a whole-body counter immediately after administering the ^75 Se-ii and subsequently at 48 hours and 7 days.

[5] = Tissue distribution studies in rats after oral administration; type: in vivo, rat; settings: for whole body retention by tissue distribution (dissection): at the end of 8 days
Protocol: The pattern of tissue distribution is similar for all the compounds. At 20 hours the ^75 Se radioactivity is largely confined to the liver, gut and faeces; apart from compounds iii and iv less than 5 percent of the radioactivity is distributed among other organs.

[6] = Biliary excretion studies in rats, oral mixture of 75Se-seleno bile acid and 14C-cholic acid; type: in vivo, rat
Protocol: Measurement of the ratio of the ^14 C/^75 Se radioactivity collected in a 24 hour bile sample to the ^14 C/^75 Se radioactivity administered orally gives an indication of the efficiency of absorption of the seleno bile acid as compared to ^14 C-cholic acid. Ideally, when these absorptions are the same the ratio would be 1, but as the efficiency of the adsorption seleno bile acid diminishes the ratio increases.

[7] = at 20 hours, relative to the other compounds

Structure (SMILES) | b (amplitude of second component) [3] [%] | c (constant; percentage predicted as never being excreted) [3] [%] | x (rate constant of first component) [3] [day⁻¹] | y (rate constant of second component) [3] [day⁻¹] | a (amplitude of first component, Retention(t)=ae^-xt+be^-yt+c) [3] [%] | further results
C[75Se]C[C@]12CC[C@H](O)CC1=CC[C@@H]1[C@@H]2CC[C@]2(C)[C@@H]([C@H](C)CCCC(C)C)CC[C@@H]12 [19-methyl-[^75 Se]selenocholesterol] | – | – | – | – | – | localisation of selenium-75 radioactivity [1]: concentrated in the enterohepatic system; metabolism compared with cholesterol [1]: appeared to parallel that of cholesterol; 75Se radioactivity collected in bile (of injected dose) ([2]; i.v. via jugular cannula, bile collected 6 1/2 hours, 390 min): about 1%; 75Se radioactivity collected in bile ([2]; i.v., 12 mCi injected, 56.65 g bile over 6 1/2 hours): approximately 100 μCi
C[C@H](C[75Se]CC(=O)O)[C@H]1CC[C@H]2[C@@H]3CC[C@@H]4C[C@H](O)CC[C@]4(C)[C@H]3C[C@H](O)[C@]12C [Compound ii, 3α,12α-dihydroxy-22-(carboxymethyl-[^75 Se]seleno)-23,24-bisnor-5β-cholane] | 27.6 | 3.36 | 2.29 | 0.65 | 190 | Retention of Selenium-75 Radioactivity ([4]; Ileal resection (3), 0 h): 100%; Retention of Selenium-75 Radioactivity ([4]; Ileal resection (3), 48 hrs.): 26%; Retention of Selenium-75 Radioactivity ([4]; Ileal resection (3), 7 days): 7.5%; Retention of Selenium-75 Radioactivity ([4]; Ileal resection (4), 0 h, patient on drugs to slow bowel transfer): 100%; Retention of Selenium-75 Radioactivity ([4]; Ileal resection (4), 48 hrs., patient on drugs to slow bowel transfer): 80%; Retention of Selenium-75 Radioactivity ([4]; Ileal resection (4), 7 days, patient on drugs to slow bowel transfer): 9.5%; Retention of Selenium-75 Radioactivity ([4]; Normal (1), 0 h): 100%; Retention of Selenium-75 Radioactivity ([4]; Normal (1), 48 hrs.): 80%; Retention of Selenium-75 Radioactivity ([4]; Normal (1), 7 days): 31%; Retention of Selenium-75 Radioactivity ([4]; Normal (2), 0 h): 100%; Retention of Selenium-75 Radioactivity ([4]; Normal (2), 48 hrs.): 100%; Retention of Selenium-75 Radioactivity ([4]; Normal (2), 7 days): 27%; rate of elimination from the body ([4]; humans who have suffered an ileal resection): this rate of elimination is increased; rate of elimination from the body ([4]; normal humans, compared with rats): considerably slower than it is for rats; 75Se radioactivity in the faeces [5, 7]: a very much small percentage of ^75 Se radioactivity in the faeces; 75Se radioactivity in the small bowel [5, 7]: a correspondingly larger proportion in the small bowel
C[C@H](CC[75Se]CCC(=O)O)[C@H]1CC[C@H]2[C@@H]3[C@H](O)C[C@@H]4C[C@H](O)CC[C@]4(C)[C@H]3CC[C@]12C [iii, 3α,7α-dihydroxy-23-(β-carboxyethyl-[^75 Se]seleno)-24-nor-5β-cholane] | 37.5 | 4.0 | 2.31 | 0.53 | 170 | ratio of 14C/75Se radioactivity in 24 hour bile sample to 14C/75Se administered orally ([6]; 24 h bile, 14C-cholic acid internal marker, 1 = absorption same as cholic acid): 54; efficiency of absorption ([6]; compared to 14C-cholic acid): very much reduced absorption
C[C@H](CC[75Se]CCC(=O)O)[C@H]1CC[C@H]2[C@@H]3[C@H](O)C[C@@H]4C[C@H](O)CC[C@]4(C)[C@H]3C[C@H](O)[C@]12C [iv, 3α,7α,12α-trihydroxy-23-(β-carboxyethyl-[^75 Se]seleno)-24-nor-5β-cholane] | 42.5 | 15.5 | 2.77 | 0.66 | 260 | whole body retention by tissue distribution (dissection) [5]: ~5.5%; whole body retention by tissue distribution (dissection) ([5]; listed as tri-hydroxy compound): approximately 5.5%
CC([75Se]CC(=O)O)[C@H]1CC[C@H]2[C@@H]3[C@H](O)C[C@@H]4C[C@H](O)CC[C@]4(C)[C@H]3C[C@H](O)[C@]12C (stereo partly drawn) [v, 3α,7α,12α-trihydroxy-20-(carboxymethyl-[^75 Se]seleno)-5β-pregnane] | 16.5 | 0.8 | 2.52 | 0.38 | 98 | –
CC([75Se]CC(=O)NCC(=O)O)[C@H]1CC[C@H]2[C@@H]3[C@H](O)C[C@@H]4C[C@H](O)CC[C@]4(C)[C@H]3C[C@H](O)[C@]12C (some centres unmarked) [vi, Glyco-22-[^75 Se]selenacholic acid] | 7.2 | 0.58 | 1.54 | 0.54 | 221 | –
C[C@H](CCC[75Se]CC(=O)O)[C@H]1CC[C@H]2[C@@H]3CC[C@@H]4C[C@H](O)CC[C@]4(C)[C@H]3CC[C@]12C [vii, 3α-hydroxy-24-(carboxymethyl-[^75 Se]seleno)-5β-cholane] | 11.8 | 2.85 | 2.29 | 0.44 | 203 | –
C[C@H](CC[123Te]CC(=O)O)[C@H]1CC[C@H]2[C@@H]3CC[C@@H]4C[C@H](O)CC[C@]4(C)[C@H]3C[C@H](O)[C@]12C [viii, 3α,12α-dihydroxy-23-(carboxymethyl-[^123m Te]telluro)-24-nor-5β-cholane] | 6.3 | 1.3 | 2.26 | 0.43 | 173 | –
